{"source": "paper PMC10674617", "about": "“Design, Synthesis, Evaluation and Molecular Dynamics Simulation of Dengue Virus NS5-RdRp Inhibitors” (Pharmaceuticals, 2023)", "key": {"[1]": {"target": "T1, DENV2 RdRp (Dengue virus type 2, UniProt P14340)", "T1 construct": "100 nM of DENV2 full-length NS5 enzyme", "experiment": "DENV biochemical enzyme assay", "conditions": "mean ± SD of two individual experiments", "protocol": "The inhibitory activities of compounds SW-b and SW-d against DENV-2 RdRp were assessed using in vitro enzyme inhibition assays. Compounds 3′-dATP, BCX4430, and NITD008 were used as controls. […] This confirmed the reliability of the DENV2 RdRp inhibitory activity assay.\nAdditionally, it contained 20 μM ATP, 20 μM GTP, 20 μM UTP, 5 μM ATTO-CTP, and 100 nM of DENV2 full-length NS5 enzyme. These were all suspended in a solution consisting of 50 mM Tris/HCl at pH 7.5, 10 mM KCl, 1 mM MgCl2, 0.3 mM MnCl2, 0.001% Triton-X-100, and 10 μM cysteine. Five compounds, with concentrations ranging from 0 to 20 or 100 μM, were serially diluted 2-fold into 384-well white opaque plates (Corning Costar, New York, NY, USA), resulting in a final volume of 5 μL. Subsequently, 5 μL of the enzyme in a 1× assay buffer was added to their respective wells. The plate was incubated at room temperature for 15 min, after which 5 μL of a mixture containing RNA and NTPs was introduced to initiate the reactions. After a reaction time of 120 min, the process was terminated by adding 10 μL of a 2.5× STOP buffer, comprising 200 mM NaCl, 25 mM MgCl2, and 1.5 M DEA adjusted to pH 10 using […]. Additionally, 25 nM of calf intestinal alkaline phosphatase (NEB) was introduced. The mixture was allowed to incubate at room temperature for an additional 60 min. To quantify the results, a Tecan Saffire II microplate reader was employed, with excitation max and emission max wavelengths set at 422 nm and 566 nm, respectively. All data points were analyzed in duplicate wells. Finally, the IC50 values were determined using a nonlinear regression curve fit for a sigmoidal dose–response (variable slope) in GraphPad Prism version 3.02 (GraphPad Prism, Inc., San Diego, CA)."}, "[2]": {"test_system": "DENV2 NGC strain", "experiment": "Cytopathic effect (CPE) inhibition assay", "type": "cell-based, Dengue virus (DENV2)", "conditions": "for SI (Selectivity Index): ratio of CC50 to IC50; for IC50: BHK-21 cells, DENV2 NGC strain, mean ± SD of two individual experiments, read-out: DENV-NGC-IC50", "protocol": "The antiviral activities of the nine synthesized compounds against DENV were assessed using the DENV2 NGC strain and BHK-21 cells via CPE inhibition assays. BCX4430, NITD008, and 27 were used as positive controls (Figure S2). […] The activity of compound SW-d was higher than that of BCX4430 and lower than that of NITD008; however, its SI was higher than those of BCX4430 and NITD008.\nIn cell-based antiviral assays, the DENV2 NGC strain (Sino Biological Inc., Beijing, China) and BHK-21 cells (Baby hamster kidney cell line; ATCC CCL10) were used. The viral stock was prepared by inoculating C6/36 cells (Aedes albopictus clone C6/36; ATCC CRL166) as described previously. […] The supernatant was cleared by centrifugation at 2000 g for 5 min to remove cell debris and adjusted to 20% FBS. Aliquots of the virus were stored at […]. The 50% tissue culture infective dose (TCID50) was determined using the Promega Viral ToxGlo assay (Fisher Scientific, Ottawa, ON, Canada) in BHK-21 cells, according to the manufacturer’s instructions. Cell-based assays for the evaluation of antiviral activity against DENV were performed as described previously with modifications, using the Viral ToxGlo assay (Fisher Scientific, Ottawa, ON, Canada) according to the manufacturer’s instructions. Briefly, BHK-21 cells were plated in 96-well plates at 2500 cells/well in Dulbecco’s modified Eagle’s medium (DMEM) containing 10% FBS and 1% penicillin-streptomycin. Cells were incubated at 37 °C overnight and infected with 100 TCID50 of DENV for 90 min. The medium was replaced with DMEM containing 2.5% FBS and varying concentrations of the test compounds. Cell cultures were maintained at 37 °C in a 5% CO2 incubator for 3 days. The Viral Tox reagent was freshly prepared, and 100 μL of the reagent was added to each well. The plates were incubated for at least 10 min and then quantified using a 1450 MicroBeta TriLux microplate scintillation and luminescence counter (PerkinElmer, Waltham, MA, USA). For the off-target cytotoxicity assay, the test compounds were processed as described above, except without DENV infection of the cells. The luminescence readings were plotted against the log transformation of the concentration of the compound. Data were analyzed by nonlinear regression using GraphPad Prism 5.0 software (GraphPad Software, San Diego, CA, USA)."}, "[3]": {"experiment": "Cytotoxicity assay", "type": "cell-based", "conditions": "dog"}, "[4]": {"test_system": "DENV RdRp", "parameters": "method as in PMID 26984786, PMID 27500641", "conditions": "against all clinically relevant dengue virus serotypes; cited from earlier work"}, "[5]": {"test_system": "MDCK cells", "experiment": "Cytotoxicity assay", "type": "cell-based", "conditions": "cytotoxicity, MDCK cells"}, "[6]": {"conditions": "Dengue virus, DENV2, BHK-21, CPE inhibition"}}, "note": "Values joined by “and” are separate entries in the source; they are usually repeats but may differ in a detail not shown here. Equal entries are not always repeated. Where two headings read alike, the source gives them in different places."}
{"smiles": "Nc1ncnc2c1ncn2[C@@H]1O[C@H](COP(=O)(O)OP(=O)(O)OP(=O)(O)O)C[C@H]1O", "note": "[3′-dATP, reference compound]", "values": [{"measurement": "IC50", "setting": "[1]", "value": "30.1 ± 8.26", "unit": "µM"}]}
{"smiles": "Nc1ncnc2c([C@@H]3N[C@H](CO)[C@@H](O)[C@H]3O)c[nH]c12", "note": "[BCX4430, reference compound]", "values": [{"measurement": "SI (Selectivity Index)", "setting": "[2]", "value": 2.40}, {"measurement": "CC50 at 3 days", "setting": "[3]", "value": 100, "unit": "µM"}]}
{"smiles": "COc1cc(C)c(C(=O)NS(=O)(=O)c2cccc3cccnc23)cc1-c1ccc(C#CCO)s1", "note": "[Compound 27, reference compound]", "values": [{"measurement": "IC50", "setting": "[2]; [6]", "value": "19.7 ± 1.12", "unit": "µM"}, {"measurement": "IC50", "setting": "[4]", "value": "0.013 to 0.074", "unit": "µM"}]}
{"smiles": "COc1cccc(S(=O)(=O)NC(=O)c2cc(-c3ccc(C#CCO)s3)c(OC)cc2OC)c1", "note": "[Compound 29]", "values": [{"measurement": "IC50", "setting": "[4]", "value": "0.048 to 0.172", "unit": "µM"}]}
{"smiles": "C#C[C@@]1(O)[C@H](O)[C@@H](CO)O[C@H]1n1ccc2c(N)ncnc21", "note": "[NITD008, reference compound]", "values": [{"measurement": "IC50", "setting": "[2]; CPE inhibition", "value": "41.6 µM and 15.5 µM"}, {"measurement": "CC50", "setting": "[5]", "value": 20, "unit": "µM"}]}
{"smiles": "COc1cccc(C(=O)NS(=O)(=O)c2cc(-c3ccc(C#CCO)s3)c(OC)cc2C)c1", "note": "[SW-a]", "values": [{"measurement": "IC50", "setting": "[2]; [6]", "value": "57.6 ± 2.37", "unit": "µM"}]}
{"smiles": "COc1cc(C)c(S(=O)(=O)NC(=O)C(C)Oc2ccc3c4c(c(=O)oc3c2)CCCC4)cc1-c1ccc(C#CCO)s1", "note": "(stereo not drawn) [SW-b]", "values": [{"measurement": "IC50", "setting": "[2]; [6]", "value": "3.58 ± 0.29", "unit": "µM"}, {"measurement": "SI (Selectivity Index)", "setting": "[2]", "value": 6.89}, {"measurement": "CC50 at 3 days", "setting": "[3]", "value": 24.7, "unit": "µM"}, {"measurement": "IC50", "setting": "[1]", "value": "11.5 ± 1.3", "unit": "µM"}]}
{"smiles": "COc1cc(C)c(S(=O)(=O)NC(=O)c2ccc(-n3c(C)ccc3C)cc2)cc1-c1ccc(C#CCO)s1", "note": "[SW-c]", "values": [{"measurement": "IC50", "setting": "[2]; [6]", "value": "41.5 ± 1.37", "unit": "µM"}, {"measurement": "CC50 at 3 days", "setting": "[3]", "value": "> 200", "unit": "µM"}]}
{"smiles": "COc1cc(C)c(S(=O)(=O)NC(=O)c2ccc(C)c(Nc3nc(C)nc4c3CCC4)c2)cc1-c1ccc(C#CCO)s1", "note": "[SW-d]", "values": [{"measurement": "IC50", "setting": "[2]; [6]", "value": "23.9 ± 1", "unit": "µM"}, {"measurement": "SI (Selectivity Index)", "setting": "[2]", "value": 5.58}, {"measurement": "CC50 at 3 days", "setting": "[3]", "value": 134, "unit": "µM"}, {"measurement": "IC50", "setting": "[1]", "value": "13.5 ± 0.32", "unit": "µM"}]}
{"smiles": "COc1cc(C)c(S(=O)(=O)NC(=O)C2CC(=O)N(c3ccc(Cl)c(Cl)c3)C2)cc1-c1ccc(C#CCO)s1", "note": "(stereo not drawn) [SW-e]", "values": [{"measurement": "IC50", "setting": "[2]; [6]", "value": "> 200", "unit": "µM"}, {"measurement": "CC50 at 3 days", "setting": "[3]", "value": 69.9, "unit": "µM"}]}
{"smiles": "COc1cc(C)c(S(=O)(=O)NC(=O)c2ccc3c(c2)C(=O)N(c2cccc(C)c2)C3=O)cc1-c1ccc(C#CCO)s1", "note": "[SW-f]", "values": [{"measurement": "IC50", "setting": "[2]; [6]", "value": "53.8 ± 4.53", "unit": "µM"}, {"measurement": "SI (Selectivity Index)", "setting": "[2]", "value": ">3.72"}, {"measurement": "CC50 at 3 days", "setting": "[3]", "value": "> 200", "unit": "µM"}]}
{"smiles": "COc1cc(C)c(S(=O)(=O)NC(=O)c2ccc(C)s2)cc1-c1ccc(C#CCO)s1", "note": "[SW-g]", "values": [{"measurement": "IC50", "setting": "[2]; [6]", "value": "> 200", "unit": "µM"}]}
{"smiles": "COc1cc(C)c(S(=O)(=O)NC(=O)c2ccncn2)cc1-c1ccc(C#CCO)s1", "note": "[SW-h]", "values": [{"measurement": "IC50", "setting": "[2]; [6]", "value": "> 200", "unit": "µM"}]}
{"smiles": "COc1cc(C)c(S(=O)(=O)NC(=O)Cn2nc(C)cc2C)cc1-c1ccc(C#CCO)s1", "note": "[SW-i]", "values": [{"measurement": "IC50", "setting": "[2]; [6]", "value": "> 200", "unit": "µM"}]}
